Read-outs that look alike come from different tables or passages of the source.
Legend:
Test in all cases: cell-based
Design in all cases: species or system HEK293; TRUPATH BRET2 G-protein dissociation; antagonist mode against agonist EC80
Conditions in all cases: agonist mode, % of control agonist
[1] = molecular target: T1, CHRM5 (Homo sapiens, UniProt P08912)
T1 sequence (P08912 1-532): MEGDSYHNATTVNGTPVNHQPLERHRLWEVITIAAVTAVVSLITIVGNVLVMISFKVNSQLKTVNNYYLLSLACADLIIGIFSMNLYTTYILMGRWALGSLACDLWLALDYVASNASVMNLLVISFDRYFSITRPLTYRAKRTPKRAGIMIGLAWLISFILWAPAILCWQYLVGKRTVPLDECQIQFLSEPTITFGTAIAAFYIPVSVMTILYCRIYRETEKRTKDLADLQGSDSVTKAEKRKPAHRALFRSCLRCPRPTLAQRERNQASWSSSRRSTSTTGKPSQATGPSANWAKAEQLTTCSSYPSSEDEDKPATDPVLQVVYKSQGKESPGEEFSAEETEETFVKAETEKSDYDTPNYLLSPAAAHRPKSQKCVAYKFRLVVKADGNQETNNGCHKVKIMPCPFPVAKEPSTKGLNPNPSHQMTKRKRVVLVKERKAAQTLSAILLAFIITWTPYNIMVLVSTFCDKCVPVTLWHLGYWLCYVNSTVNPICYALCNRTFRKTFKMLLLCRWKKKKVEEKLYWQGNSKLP

[2] = molecular target: T2, CHRM4 (Homo sapiens, UniProt P08173)
T2 sequence (P08173 1-479): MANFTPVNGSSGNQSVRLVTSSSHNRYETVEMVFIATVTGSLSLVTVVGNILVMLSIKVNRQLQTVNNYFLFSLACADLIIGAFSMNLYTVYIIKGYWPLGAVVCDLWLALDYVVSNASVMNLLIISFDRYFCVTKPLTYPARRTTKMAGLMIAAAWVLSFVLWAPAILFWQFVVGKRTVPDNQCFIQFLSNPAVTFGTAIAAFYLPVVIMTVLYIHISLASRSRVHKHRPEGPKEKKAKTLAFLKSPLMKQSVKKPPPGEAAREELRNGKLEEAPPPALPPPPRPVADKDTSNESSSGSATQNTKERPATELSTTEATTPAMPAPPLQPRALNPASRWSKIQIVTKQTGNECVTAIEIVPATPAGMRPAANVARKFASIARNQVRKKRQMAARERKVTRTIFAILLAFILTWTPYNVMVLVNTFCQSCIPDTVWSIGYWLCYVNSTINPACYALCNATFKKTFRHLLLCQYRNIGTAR

[3] = molecular target: HRH4 (Homo sapiens, UniProt Q9H3N8)
[4] = molecular target: CHRM3 (Homo sapiens, UniProt P20309)
[5] = molecular target: T3, HTR1A (Homo sapiens, UniProt P08908)
T3 sequence (P08908 1-422): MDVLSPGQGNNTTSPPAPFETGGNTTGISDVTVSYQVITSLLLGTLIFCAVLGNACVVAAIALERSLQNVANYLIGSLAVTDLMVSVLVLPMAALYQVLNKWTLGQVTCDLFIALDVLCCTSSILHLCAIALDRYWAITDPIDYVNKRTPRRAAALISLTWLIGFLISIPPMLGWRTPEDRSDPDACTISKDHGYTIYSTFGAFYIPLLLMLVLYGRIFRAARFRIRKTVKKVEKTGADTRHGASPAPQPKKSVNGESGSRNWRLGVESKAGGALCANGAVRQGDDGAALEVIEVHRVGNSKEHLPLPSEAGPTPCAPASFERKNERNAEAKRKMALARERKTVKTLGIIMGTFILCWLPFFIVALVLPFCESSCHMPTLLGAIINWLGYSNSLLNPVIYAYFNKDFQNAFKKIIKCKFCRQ

[6] = molecular target: HRH3 (Homo sapiens, UniProt Q9Y5N1)
[7] = molecular target: HTR1D (Homo sapiens, UniProt P28221)
[8] = HEK293, read-out: N-Desmethyl Xanomeline, Assay=Gq
[9] = HEK293, read-out: N-Desmethyl Xanomeline, Assay=Gi1
[10] = HEK293, read-out: N-Desmethyl Xanomeline, Assay=Gi2
[11] = HEK293, read-out: N-Desmethyl Xanomeline, Assay=Gi3
[12] = HEK293, read-out: N-Desmethyl Xanomeline, Assay=GoA
[13] = HEK293, read-out: N-Desmethyl Xanomeline, Assay=GoB
[14] = HEK293, read-out: N-Desmethyl Xanomeline, Assay=Gz
[15] = HEK293, read-out: Xanomeline, Assay=Gq
[16] = HEK293, read-out: Xanomeline, Assay=Gi1
[17] = HEK293, read-out: Xanomeline, Assay=Gi2
[18] = HEK293, read-out: Xanomeline, Assay=Gi3
[19] = HEK293, read-out: Xanomeline, Assay=GoA
[20] = HEK293, read-out: Xanomeline, Assay=GoB
[21] = HEK293, read-out: Xanomeline, Assay=Gz

Chain of HRH3 (Q9Y5N1 whole entry): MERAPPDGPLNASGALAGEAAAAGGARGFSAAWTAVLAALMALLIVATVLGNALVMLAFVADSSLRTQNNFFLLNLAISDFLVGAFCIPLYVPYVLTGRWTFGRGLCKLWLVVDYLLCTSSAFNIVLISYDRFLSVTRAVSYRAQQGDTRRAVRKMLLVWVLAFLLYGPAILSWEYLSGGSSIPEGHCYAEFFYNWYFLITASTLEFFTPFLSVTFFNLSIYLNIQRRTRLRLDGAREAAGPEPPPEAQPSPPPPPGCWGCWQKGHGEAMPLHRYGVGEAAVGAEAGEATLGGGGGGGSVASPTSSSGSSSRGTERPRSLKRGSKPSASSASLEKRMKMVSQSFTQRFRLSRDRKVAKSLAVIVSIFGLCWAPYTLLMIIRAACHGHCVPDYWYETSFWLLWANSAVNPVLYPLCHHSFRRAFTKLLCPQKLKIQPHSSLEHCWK
Chain of HTR1D (P28221 whole entry): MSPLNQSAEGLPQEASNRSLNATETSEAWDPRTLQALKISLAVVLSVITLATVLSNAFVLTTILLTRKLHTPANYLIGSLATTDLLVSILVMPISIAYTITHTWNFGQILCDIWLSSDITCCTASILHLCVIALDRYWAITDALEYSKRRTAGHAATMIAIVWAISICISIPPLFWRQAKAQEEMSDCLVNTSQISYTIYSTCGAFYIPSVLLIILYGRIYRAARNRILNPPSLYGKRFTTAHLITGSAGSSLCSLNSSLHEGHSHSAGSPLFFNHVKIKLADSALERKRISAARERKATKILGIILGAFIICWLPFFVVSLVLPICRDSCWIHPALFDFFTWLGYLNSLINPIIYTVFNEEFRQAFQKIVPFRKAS
Chain of HRH4 (Q9H3N8 whole entry): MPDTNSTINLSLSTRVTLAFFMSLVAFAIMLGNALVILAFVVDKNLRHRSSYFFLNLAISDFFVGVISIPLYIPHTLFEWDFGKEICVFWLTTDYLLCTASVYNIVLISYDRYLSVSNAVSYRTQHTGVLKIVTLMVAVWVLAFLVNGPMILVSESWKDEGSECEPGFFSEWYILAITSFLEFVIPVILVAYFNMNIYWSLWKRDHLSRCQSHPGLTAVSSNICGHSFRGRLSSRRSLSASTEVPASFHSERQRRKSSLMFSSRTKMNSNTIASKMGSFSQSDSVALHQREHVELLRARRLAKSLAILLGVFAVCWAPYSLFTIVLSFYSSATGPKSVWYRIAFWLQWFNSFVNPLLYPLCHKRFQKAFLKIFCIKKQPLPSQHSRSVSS
Chain of CHRM3 (P20309 whole entry): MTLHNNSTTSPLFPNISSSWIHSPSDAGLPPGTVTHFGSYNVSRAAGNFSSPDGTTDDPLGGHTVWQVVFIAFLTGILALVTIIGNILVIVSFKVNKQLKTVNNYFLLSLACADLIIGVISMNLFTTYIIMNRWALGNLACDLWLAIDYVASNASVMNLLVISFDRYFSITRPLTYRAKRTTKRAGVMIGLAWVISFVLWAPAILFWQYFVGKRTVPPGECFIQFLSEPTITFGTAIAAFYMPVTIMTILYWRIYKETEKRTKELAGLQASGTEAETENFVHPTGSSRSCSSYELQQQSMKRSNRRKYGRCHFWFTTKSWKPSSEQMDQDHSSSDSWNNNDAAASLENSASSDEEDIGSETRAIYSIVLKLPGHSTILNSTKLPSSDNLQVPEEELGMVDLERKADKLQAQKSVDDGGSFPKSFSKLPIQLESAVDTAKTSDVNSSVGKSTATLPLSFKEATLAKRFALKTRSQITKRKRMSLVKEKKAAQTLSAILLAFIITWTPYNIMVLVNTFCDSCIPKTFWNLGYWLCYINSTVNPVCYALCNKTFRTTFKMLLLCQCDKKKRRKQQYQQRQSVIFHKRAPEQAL

`CCCCCCOc1nsnc1C1=CCCNC1` [N-desmethylxanomeline] showed an Emax [1, 8] of 80.4%, an Emax [2, 9] of 94.1% and an Emax [2, 10] of 106%. It also gave an Emax [2, 11] of 81.3%, an Emax [2, 12] of 100% and an Emax [2, 13] of 102%. The Emax [2, 14] was 89%, the Emax [3, 9] was 79.3% and the Emax [3, 10] was 81%. It also gave an Emax [3, 11] of 86.8%, an Emax [3, 12] of 81.7% and an Emax [4, 8] of 62.4%. The Emax [5, 10] was 103%, the Emax [5, 12] was 97.4% and the Emax [5, 13] was 98.8%. The Emax [6, 9] was 75.4%, the Emax [6, 10] was 65.4% and the Emax [6, 11] was 84%. It also gave an Emax [6, 12] of 79.3%, an Emax [6, 13] of 82.8% and an Emax [7, 9] of 88.1%. The Emax [7, 10] was 66.3%, the Emax [7, 11] was 82.1% and the Emax [7, 12] was 92.2%. For the same molecule, the Emax [7, 13] was 73.8% and the Emax [7, 14] was 93.6%.

For `CCCCCCOc1nsnc1C1=CCCN(C)C1` [Xanomeline], the Emax [1, 15] was 82%, the Emax [2, 16] was 98.4% and the Emax [2, 17] was 110%. It also gave an Emax [2, 18] of 86%, an Emax [2, 19] of 107% and an Emax [2, 20] of 106%. For the same molecule, the Emax [2, 21] was 94.1%, the Emax [3, 16] was 49.5% and the Emax [3, 17] was 65.8%. It also gave an Emax [3, 18] of 40.2%, an Emax [3, 19] of 37.4% and an Emax [4, 15] of 65.6%. The Emax [5, 17] was 99.6%, the Emax [5, 19] was 94.5% and the Emax [5, 20] was 91.7%. The Emax [6, 17] was 28.5%, the Emax [6, 19] was 25.7% and the Emax [6, 20] was 19%. It also gave an Emax [7, 16] of 69.7%, an Emax [7, 17] of 52.7% and an Emax [7, 18] of 66.7%. It also gave an Emax [7, 19] of 86.5%, an Emax [7, 20] of 63.4% and an Emax [7, 21] of 85.3%.

Source: paper doi:10.1101/2025.11.20.689572v1 (biorxiv, 2025)
